From paper PMC7997032, “Organic synthesis and anti-influenza A virus activity of cyclobakuchiols A, B, C, and D” (PLoS ONE, 2021)
Values joined by “and” are separate entries in the source; they are usually repeats but may differ in a detail not shown here. Identical values can stand only once.

System: MDCK cells
Experiment: MTT assay (cytotoxicity against MDCK cells)
Assay type: cell-based, canine
Conditions: MDCK cells; for MTT, DMSO as 100 (DMSOを 100として), ave / MTT 72h AVE (DMSO = 100): 72h; for MTT, DMSO as 100 (DMSOを 100として), ave: mean of 5 wells (200409 #1 and #3); for MTT 72h AVE (DMSO = 100): summary AVE; for MTT 24h, AVE (DMSO as 100) / MTT 24h, 570-650nm, DMSO as 100, ave: mean of 5 wells from 3 experiments; for MTT 24h, AVE (DMSO as 100): relative to DMSO = 100; for MTT 24h, 570-650nm, DMSO as 100, single replicate: individual wells (200331; 200403 #2 1,2; 200403 #3 1,2); for 570-650nm (MTT absorbance, single wells) / 570-650nm ave (mean MTT absorbance of 5 wells) / MTT absorbance with DMSO as 100 (DMSOを 100として), single wells: MTT 72h; for 570-650nm (MTT absorbance, single wells): experiments #1-#3, duplicate wells; for MTT absorbance with DMSO as 100 (DMSOを 100として), single wells: relative to mean of DMSO
Procedure: 1–5 (0.8–100 μM) were prepared in DMSO (100 μM, 1%; 50 μM, 0.5%; 25 μM, 0.25%; 12.5 μM, 0.125%; 6.3 μM, 0.063%; 3.1 μM, 0.031%; 1.6 μM, 0.016%; 0.8 μM, 0.008%) and mixed with infection medium (DMEM supplemented with 1% bovine serum albumin (BSA; Wako), P/S and 4 mM L-glutamine). The resulting mixture was added to the cells and incubated for 24 or 72 h at 37°C in the presence of 5% CO2. After incubation, cell viability was determined using an MTT cell count kit (Nacalai Tesque) according to the manufacturer’s instructions, as previously described.

[1] = 3.13uM (3.125uM in summary block)

Question: `C=C[C@]1(C)CC[C@@H](C(=C)C)[C@H](c2ccc(O)cc2)C1` [Cyclo. B] was tested. Which “MTT, DMSO as 100 (DMSOを 100として), ave” value (0.78uM) did it give?
Answer: 97.4368

Question: What about the “MTT, DMSO as 100 (DMSOを 100として), ave” value (1.56uM) of the same molecule?
Answer: 107.487

Question: And the “MTT, DMSO as 100 (DMSOを 100として), ave” value (3.125uM)?
Answer: 135.205

Question: What about the “MTT 72h AVE (DMSO = 100)” value (6.25 (uM)) of the same molecule?
Answer: 152.012

Question: And the “MTT 72h AVE (DMSO = 100)” value (12.5 (uM))?
Answer: 128.856

Question: And the “MTT 72h AVE (DMSO = 100)” value (25 (uM))?
Answer: 133.275

Question: And the “MTT 72h AVE (DMSO = 100)” value (50 (uM))?
Answer: 92.332

Question: What about the “MTT 72h AVE (DMSO = 100)” value (100 (uM)) of the same molecule?
Answer: 27.1545

Question: And the “MTT 24h, AVE (DMSO as 100)” value (0.78 uM)?
Answer: 105.371

Question: And the “MTT 24h, AVE (DMSO as 100)” value (1.56 uM)?
Answer: 93.7053

Question: What about the “MTT 24h, 570-650nm, DMSO as 100, single replicate” value (shortened to “MTT 24h … single replicate”) (3.125uM) of the same molecule?
Answer: 97.7259 and 87.8578 and 108.85 and 106.215 and 84.4914

Question: What about the “MTT 24h, 570-650nm, DMSO as 100, ave” value (3.125uM) of the same molecule?
Answer: 97.028

Question: And the “MTT 24h … single replicate” value (6.25uM)?
Answer: 100.056 and 92.1514 and 106.191 and 111.594 and 90.247

Question: What about the “MTT 24h, 570-650nm, DMSO as 100, ave” value (6.25uM) of the same molecule?
Answer: 100.048

Question: What about the “MTT 24h … single replicate” value (12.5uM) of the same molecule?
Answer: 100.027 and 92.2079 and 111.97 and 107.481 and 100.019

Question: What about the “MTT 24h, 570-650nm, DMSO as 100, ave” value (12.5uM) of the same molecule?
Answer: 102.341

Question: And the “MTT 24h … single replicate” value (25uM)?
Answer: 93.3176 and 99.811 and 119.964 and 115.104 and 108.65

Question: What about the “MTT 24h, 570-650nm, DMSO as 100, ave” value (25uM) of the same molecule?
Answer: 107.369

Question: And the “MTT 24h … single replicate” value (50uM)?
Answer: 101.366 and 118.852 and 85.3652 and 130.523 and 116.385

Question: What about the “MTT 24h, 570-650nm, DMSO as 100, ave” value (50uM) of the same molecule?
Answer: 110.498

Question: What about the “MTT 24h … single replicate” value (100uM) of the same molecule?
Answer: 120.469 and 116.882 and 135.616 and 105.182 and 78.3439

Question: What about the “MTT 24h, 570-650nm, DMSO as 100, ave” value (100uM) of the same molecule?
Answer: 111.299

Question: And the “570-650nm (MTT absorbance, single wells)” value (0.78uM)?
Answer: 1.0803 and 0.7822 and 0.6986 and 0.7618 and 0.6844 and 0.8059

Question: And the “570-650nm (MTT absorbance, single wells)” value (1.56uM)?
Answer: 0.9938 and 0.9382 and 0.7725 and 0.5035 and 0.9217 and 0.7676

Question: And the “570-650nm (MTT absorbance, single wells)” value [1]?
Answer: 0.8489 and 0.8759 and 0.9309 and 0.9208 and 0.9982 and 0.8279

Question: And the “570-650nm ave (mean MTT absorbance of 5 wells)” value (from here on “570-650nm ave”) (6.25uM)?
Answer: 1.04

Question: What about the “570-650nm (MTT absorbance, single wells)” value (6.25uM) of the same molecule?
Answer: 0.8643 and 1.0571 and 1.004 and 1.1478 and 1.1256 and 0.8768

Question: What about the “MTT absorbance with DMSO as 100 (DMSOを 100として), single wells” value (from here on “MTT absorbance with DMSO”) (6.25uM) of the same molecule?
Answer: 154.547 and 146.784 and 167.807 and 164.561 and 126.36

Question: And the “570-650nm ave” value (12.5uM)?
Answer: 1.026

Question: What about the “570-650nm (MTT absorbance, single wells)” value (12.5uM) of the same molecule?
Answer: 1.0196 and 0.9592 and 1.0242 and 0.9589 and 1.0117 and 1.1742

Question: And the “MTT absorbance with DMSO” value (12.5uM)?
Answer: 120.471 and 128.675 and 147.52 and 127.104 and 120.509

Question: And the “570-650nm ave” value (25uM)?
Answer: 1.002

Question: And the “570-650nm ave” value (50uM)?
Answer: 0.8426

Question: What about the “570-650nm ave” value (100uM) of the same molecule?
Answer: 0.2557

Question: What about the “570-650nm (MTT absorbance, single wells)” value (100uM) of the same molecule?
Answer: 0.2419 and 0.2859 and 0.234 and 0.2603 and 0.2251 and 0.273

Question: What about the “MTT absorbance with DMSO” value (100uM) of the same molecule?
Answer: 27.6474 and 24.854 and 28.9963 and 23.9087 and 30.3664

Question: How did the “MTT, DMSO as 100 (DMSOを 100として), ave” value (0.78uM) turn out when `C=C[C@]1(C)CC[C@H](C(C)(C)O)[C@@H](c2ccc(O)cc2)C1` [Cyclo. C] was run?
Answer: 97.7369

Question: And the “MTT, DMSO as 100 (DMSOを 100として), ave” value (1.56uM)?
Answer: 116.194

Question: What about the “MTT, DMSO as 100 (DMSOを 100として), ave” value (3.125uM) of the same molecule?
Answer: 124.106

Question: What about the “MTT 72h AVE (DMSO = 100)” value (6.25 (uM)) of the same molecule?
Answer: 130.219

Question: What about the “MTT 72h AVE (DMSO = 100)” value (12.5 (uM)) of the same molecule?
Answer: 123.122

Question: And the “MTT 72h AVE (DMSO = 100)” value (25 (uM))?
Answer: 141.455

Question: What about the “MTT 72h AVE (DMSO = 100)” value (50 (uM)) of the same molecule?
Answer: 116.495

Question: What about the “MTT 72h AVE (DMSO = 100)” value (100 (uM)) of the same molecule?
Answer: 142.83

Question: And the “MTT 24h, AVE (DMSO as 100)” value (0.78 uM)?
Answer: 97.4262

Question: And the “MTT 24h, AVE (DMSO as 100)” value (1.56 uM)?
Answer: 89.4582

Question: What about the “MTT 24h … single replicate” value (3.125uM) of the same molecule?
Answer: 98.8583 and 80.6936 and 68.9227 and 107.532 and 92.5261

Question: What about the “MTT 24h, 570-650nm, DMSO as 100, ave” value (3.125uM) of the same molecule?
Answer: 89.7067

Question: What about the “MTT 24h … single replicate” value (6.25uM) of the same molecule?
Answer: 105.442 and 92.9243 and 77.243 and 111.801 and 97.5139

Question: And the “MTT 24h, 570-650nm, DMSO as 100, ave” value (6.25uM)?
Answer: 96.9849

Question: What about the “MTT 24h … single replicate” value (12.5uM) of the same molecule?
Answer: 112.407 and 88.505 and 78.5484 and 110.111 and 102.316

Question: What about the “MTT 24h, 570-650nm, DMSO as 100, ave” value (12.5uM) of the same molecule?
Answer: 98.3774

Question: And the “MTT 24h … single replicate” value (25uM)?
Answer: 89.9468 and 93.8621 and 86.7762 and 109.435 and 109.619

Question: What about the “MTT 24h, 570-650nm, DMSO as 100, ave” value (25uM) of the same molecule?
Answer: 97.9279

Question: What about the “MTT 24h … single replicate” value (50uM) of the same molecule?
Answer: 107.424 and 104.395 and 78.3927 and 112.047 and 113.734

Question: And the “MTT 24h, 570-650nm, DMSO as 100, ave” value (50uM)?
Answer: 103.198

Question: And the “MTT 24h … single replicate” value (100uM)?
Answer: 113.671 and 119.568 and 104.628 and 127.474 and 126.723

Question: And the “MTT 24h, 570-650nm, DMSO as 100, ave” value (100uM)?
Answer: 118.413

Question: And the “570-650nm (MTT absorbance, single wells)” value (0.78uM)?
Answer: 0.9938 and 0.7395 and 0.7311 and 0.6372 and 0.8862 and 0.7504

Question: And the “570-650nm (MTT absorbance, single wells)” value (1.56uM)?
Answer: 0.9464 and 0.9776 and 0.7533 and 0.5791 and 0.9528 and 0.9569

Question: What about the “570-650nm (MTT absorbance, single wells)” value [1] of the same molecule?
Answer: 0.9669 and 0.8575 and 0.7479 and 0.8256 and 0.9 and 0.8489

Question: What about the “570-650nm ave” value (6.25uM) of the same molecule?
Answer: 0.8907

Question: What about the “570-650nm (MTT absorbance, single wells)” value (6.25uM) of the same molecule?
Answer: 0.8518 and 0.8346 and 0.7398 and 1.0173 and 1.01 and 0.9632

Question: And the “MTT absorbance with DMSO” value (6.25uM)?
Answer: 122.018 and 108.158 and 148.728 and 147.661 and 124.532

Question: And the “570-650nm ave” value (12.5uM)?
Answer: 0.98

Question: What about the “570-650nm (MTT absorbance, single wells)” value (12.5uM) of the same molecule?
Answer: 0.9561 and 0.8827 and 0.8467 and 1.0013 and 1.1241 and 1.0452

Question: And the “MTT absorbance with DMSO” value (12.5uM)?
Answer: 125.798 and 106.375 and 131.313 and 141.226 and 110.898

Question: What about the “570-650nm ave” value (25uM) of the same molecule?
Answer: 1.064

Question: And the “570-650nm (MTT absorbance, single wells)” value (25uM)?
Answer: 0.9926 and 0.9592 and 0.9724 and 1.0619 and 1.1012 and 1.2247

Question: And the “MTT absorbance with DMSO” value (25uM)?
Answer: 141.191 and 129.291 and 162.837 and 146.417 and 127.536

Question: And the “570-650nm ave” value (50uM)?
Answer: 1.063

Question: What about the “570-650nm (MTT absorbance, single wells)” value (50uM) of the same molecule?
Answer: 1.1675 and 1.0763 and 1.0296 and 0.8397 and 1.1252 and 1.245

Question: And the “MTT absorbance with DMSO” value (50uM)?
Answer: 92.0098 and 112.818 and 136.42 and 123.293 and 117.935

Question: What about the “570-650nm ave” value (100uM) of the same molecule?
Answer: 1.345

Question: What about the “570-650nm (MTT absorbance, single wells)” value (100uM) of the same molecule?
Answer: 1.4551 and 1.3837 and 1.3254 and 1.1438 and 1.3954 and 1.4754

Question: And the “MTT absorbance with DMSO” value (100uM)?
Answer: 121.487 and 140.775 and 156.707 and 148.21 and 146.968
